Measured values: patent US20080227638A1, “Use of abscisic acid to enhance growth control” (priority 2007, published 2008)

Assays:
Assay type in all cases: in vivo
[1] = tested on: creeping bentgrass; assay: Golf course green creeping bentgrass height, ABA and trinexapac-ethyl (Example 4)
Experimental: (§1) Field studies were conducted at the nursery green or the practice green at Countryside golf course (Mundelein, Ill.). Both greens were sand based and growing Penncross creeping bentgrass. Grass was managed with typical Illinois golf course management practices.
(§2) Chemical solutions were prepared with distilled water. Tween 20 (0.05% v/v) was used as an, adjuvant. Both trinexapac-ethyl (commercial product Primo Maxx, 11.3% active ingredient) and paclobutrazol (commercial product Trimmit 2SC, 22.3% active ingredient) were purchased from Syngenta Crop Protection Inc. (Greensboro, N.C.). Uniconazole-P (commercial product Sumagic, 0.55% active ingredient) was obtained from Valent U.S.A. Corporation (Walnut Creek, Calif.).
(§3) When treated with paclobutrazol or uniconazole-P, turfgrass received irrigation within 24 hours after application to flush chemicals to the root zone. After treatment, turfgrasses were arranged in a randomized complete block experimental design. Turfgrass quality, turfgrass height or clip fresh weight was measured on assigned dates. Turfgrass quality was visually rated on a 0-9 scale based on the color, uniformity and density of the grass with 0 as the worst and 9 as the best. Turfgrass height was measured as the distance between canopy surface and soil. Clips were collected from each plot; all plots were cut to a uniform height.
(§4) All experiments were randomized complete block experimental design. Data were analyzed by analysis of variance. Duncan's new multiple range tests at α=0.05 were used for mean separations.
(§5) Tween 20 (0.05% w/v) was included as an adjuvant.

[2] = tested on: tomato (variety: Rutgers); assay: Tomato leaf transpiration, porometer (Example 9)
Text: (§6) Tomato (variety: Rutgers) seeds were sown in 18-cell flat filled with Promix PGX (available from Premier Horticulture Inc. Quakertown, Pa.) and grown for 3 weeks to allow for germination and initial growth. Plants were then transplanted into pots (18 cm in diameter and 18 cm in height), filled with Promix BX (available from Premier Horticulture Inc. Quakertown, Pa.), and grown for one week before the chemical treatment. Plants received daily irrigation and weekly fertilizer (1 g/L all purpose fertilizer 20-20-20, available from The Scotts Company, Marysville, Ohio).
(§7) During the chemical treatment, a 15 mL (2.5 mL/plant) solution was foliar sprayed on the tomato canopy. Leaf transpiration rates were measured using a LI-1600 Steady State Porometer (LI-Cor, Lincoln, Nebr.) at 1, 2, 3, 4, 7, 10 and 15 days after treatment. Leaf transpiration rate was normalized to the percentage of control plant to minimize the experimental errors caused by environmental factors. Plant height was measured at 0, 2, 4, 7, 10 and 15 days after treatment. Growth rate was calculated based on the changes of plant height in certain intervals. The plants were harvested and the leaf number was counted at 15 days after treatment.

[3] = tested on: creeping bentgrass green; assay: Soil moisture of creeping bentgrass green, ABA and trinexapac-ethyl (Example 8); conditions: 25 ppm trinexapac-ethyl
Experimental: as §1, §2, §3, §4, §5

[4] = tested on: Kentucky bluegrass; assay: Greenhouse Kentucky bluegrass height and quality, ABA and trinexapac-ethyl (Example 1); conditions: for Quality: visual 0-9 scale
Experimental: Greenhouse studies were conducted at the Research Farm of Valent BioSciences Corporation (Long Grove, Ill.). Grasses were grown in pots (18 cm in diameter and 18 cm in height) filled with Promix BX (available from Premier Horticulture Inc. Quakertown, Pa.). Grass was irrigated daily by an overhead irrigation system. The irrigation system was set up with multiple Tornado Mist Spray Heads (10 GPH at 40 PSI-Wetted diameter, NDS/Raindrip, Woodland Hills, Calif.). Spray heads were 1-meter apart from each other and 75 cm above grass canopy. Grass was cut with a scissor at 2.5 cm height and fertilizer (1 g/L all purpose fertilizer 20-20-20, available from The Scotts Company, Marysville, Ohio) was applied once per week.
as §2, §3, §4
Kentucky bluegrass sod (unknown variety) was purchased from Deak sod farms, Inc. (Union Grove, Wis.). Grass was grown in the greenhouse in pots (n=6 pots per treatment) for establishment before treatment. […] Tween 20 (0.05% w/v) was included as an adjuvant. Turfgrass canopy was not cut during the experimental period.

[5] = tested on: tomato (variety: Rutgers); assay: Tomato plant height, growth rate and leaf number (Example 9); conditions: for Leaf number: 15 days after treatment
Text: as §6, §7

[6] = 250 ppm trinexapac-ethyl, day 2 after treatment
[7] = 250 ppm trinexapac-ethyl, day 4 after treatment
[8] = 250 ppm trinexapac-ethyl, day 7 after treatment
[9] = 250 ppm trinexapac-ethyl, day 10 after treatment
[10] = 250 ppm trinexapac-ethyl, day 15 after treatment
[11] = 500 ppm trinexapac-ethyl, day 2 after treatment
[12] = 500 ppm trinexapac-ethyl, day 4 after treatment
[13] = 500 ppm trinexapac-ethyl, day 7 after treatment
[14] = 500 ppm trinexapac-ethyl, day 10 after treatment
[15] = 500 ppm trinexapac-ethyl, day 15 after treatment
[16] = 1000 ppm trinexapac-ethyl, day 2 after treatment
[17] = 1000 ppm trinexapac-ethyl, day 4 after treatment
[18] = 1000 ppm trinexapac-ethyl, day 7 after treatment
[19] = 1000 ppm trinexapac-ethyl, day 10 after treatment
[20] = 1000 ppm trinexapac-ethyl, day 15 after treatment
[21] = 2000 ppm trinexapac-ethyl, day 2 after treatment
[22] = 2000 ppm trinexapac-ethyl, day 4 after treatment
[23] = 2000 ppm trinexapac-ethyl, day 7 after treatment
[24] = 2000 ppm trinexapac-ethyl, day 10 after treatment
[25] = 2000 ppm trinexapac-ethyl, day 15 after treatment
[26] = 40 ppm trinexapac-ethyl, 23 days after treatment
[27] = 80 ppm trinexapac-ethyl, 23 days after treatment
[28] = 160 ppm trinexapac-ethyl, 23 days after treatment

Quality [4, 26]: 7.8
Quality [4, 27]: 8.0
Quality [4, 28]: 7.0
SMILES: CCOC(=O)C1CC(=O)C(=C(O)C2CC2)C(=O)C1 (stereo not shown) [trinexapac-ethyl]
Turfgrass height ([1]; 12.5 ppm trinexapac-ethyl, 7 days after treatment): 6.0 cm
Turfgrass height ([1]; 12.5 ppm trinexapac-ethyl, 14 days after treatment): 8.5 cm
Turfgrass height ([1]; 50 ppm trinexapac-ethyl, 7 days after treatment): 4.3 cm
Turfgrass height ([1]; 50 ppm trinexapac-ethyl, 14 days after treatment): 5.5 cm
Transpiration ([2]; 250 ppm trinexapac-ethyl, day 1 after treatment): 91 % of control
Transpiration [2, 6]: 99 % of control
Transpiration ([2]; 250 ppm trinexapac-ethyl, day 3 after treatment): 91 % of control
Transpiration [2, 7]: 95 % of control
Transpiration [2, 8]: 100 % of control
Transpiration [2, 9]: 98 % of control
Transpiration [2, 10]: 98 % of control
Transpiration ([2]; 500 ppm trinexapac-ethyl, day 1 after treatment): 91 % of control
Transpiration [2, 11]: 95 % of control
Transpiration ([2]; 500 ppm trinexapac-ethyl, day 3 after treatment): 89 % of control
Transpiration [2, 12]: 96 % of control
Transpiration [2, 13]: 100 % of control
Transpiration [2, 14]: 99 % of control
Transpiration [2, 15]: 100 % of control
Transpiration ([2]; 1000 ppm trinexapac-ethyl, day 1 after treatment): 92 % of control
Transpiration [2, 16]: 96 % of control
Transpiration ([2]; 1000 ppm trinexapac-ethyl, day 3 after treatment): 91 % of control
Transpiration [2, 17]: 98 % of control
Transpiration [2, 18]: 100 % of control
Transpiration [2, 19]: 103 % of control
Transpiration [2, 20]: 99 % of control
Transpiration ([2]; 2000 ppm trinexapac-ethyl, day 1 after treatment): 95 % of control
Transpiration [2, 21]: 94 % of control
Transpiration ([2]; 2000 ppm trinexapac-ethyl, day 3 after treatment): 90 % of control
Transpiration [2, 22]: 98 % of control
Transpiration [2, 23]: 97 % of control
Transpiration [2, 24]: 99 % of control
Transpiration [2, 25]: 98 % of control
Soil moisture ([3]; 2 days after treatment): 11.2%
Soil moisture ([3]; 7 days after treatment): 12.7%
Turfgrass height ([4]; 40 ppm trinexapac-ethyl, 7 days after treatment): 9.5 cm
Turfgrass height [4, 26]: 18.0 cm
Turfgrass height ([4]; 80 ppm trinexapac-ethyl, 7 days after treatment): 7.4 cm
Turfgrass height [4, 27]: 17.3 cm
Turfgrass height ([4]; 160 ppm trinexapac-ethyl, 7 days after treatment): 6.1 cm
Turfgrass height [4, 28]: 13.3 cm
Leaf number ([5]; 250 ppm trinexapac-ethyl): 12.0
Plant height ([5]; 250 ppm trinexapac-ethyl, day 0 after treatment): 10.3 cm
Growth rate [5, 6]: 1.7 cm/day
Plant height [5, 6]: 13.6 cm
Growth rate [5, 7]: 1.5 cm/day
Plant height [5, 7]: 16.4 cm
Growth rate [5, 8]: 2.6 cm/day
Plant height [5, 8]: 28.7 cm
Growth rate [5, 9]: 2.2 cm/day
Plant height [5, 9]: 32.3 cm
Growth rate [5, 10]: 2.7 cm/day
Plant height [5, 10]: 50.6 cm
Leaf number ([5]; 500 ppm trinexapac-ethyl): 11.7
Plant height ([5]; 500 ppm trinexapac-ethyl, day 0 after treatment): 9.8 cm
Growth rate [5, 11]: 1.7 cm/day
Plant height [5, 11]: 13.1 cm
Growth rate [5, 12]: 1.5 cm/day
Plant height [5, 12]: 15.9 cm
Growth rate [5, 13]: 2.6 cm/day
Plant height [5, 13]: 28.3 cm
Growth rate [5, 14]: 2.2 cm/day
Plant height [5, 14]: 31.2 cm
Growth rate [5, 15]: 2.6 cm/day
Plant height [5, 15]: 50.7 cm
Leaf number ([5]; 1000 ppm trinexapac-ethyl): 11.7
Plant height ([5]; 1000 ppm trinexapac-ethyl, day 0 after treatment): 10.0 cm
Growth rate [5, 16]: 1.2 cm/day
Plant height [5, 16]: 12.3 cm
Growth rate [5, 17]: 1.4 cm/day
Plant height [5, 17]: 15.4 cm
Growth rate [5, 18]: 2.4 cm/day
Plant height [5, 18]: 26.7 cm
Growth rate [5, 19]: 2.1 cm/day
Plant height [5, 19]: 31.3 cm
Growth rate [5, 20]: 2.8 cm/day
Plant height [5, 20]: 52.7 cm
Leaf number ([5]; 2000 ppm trinexapac-ethyl): 11.5
Plant height ([5]; 2000 ppm trinexapac-ethyl, day 0 after treatment): 9.9 cm
Growth rate [5, 21]: 1.2 cm/day
Plant height [5, 21]: 12.2 cm
Growth rate [5, 22]: 1.5 cm/day
Plant height [5, 22]: 15.8 cm
Growth rate [5, 23]: 2.0 cm/day
Plant height [5, 23]: 23.9 cm
Growth rate [5, 24]: 2.0 cm/day
Plant height [5, 24]: 29.3 cm
Growth rate [5, 25]: 2.7 cm/day
Plant height [5, 25]: 50.6 cm
